{"source": "patent US11083732B2", "about": "“Use of negative modulators of GABA receptors containing alpha5 subunits as fast acting antidepressants” (University of Maryland, Baltimore, priority 2014, dated 2021)", "key": {"ΔFosB": {"test_system": "ΔFosB", "test": "FosB and ΔFosB expression after injection", "type": "in vivo, rat", "excerpt": "D3. Nestler and colleagues have shown that induction of the transcription factor ΔFosB in D1R-expressing medium spiny neurons in the NAc in response to chronic stress is an important mediator of resilience and may play a role in the antidepressant actions of fluoxetine by changing gene expression and synaptic strength (Perrotti et al., 2004; Lobo et al., 2013; Grueter et al., 2013). It is considered whether alpha5 GABA-NAM injection also affects deltaFosB expression. Control and CRS-susceptible rats receive an injection of L-665, 708. […] Tissue punches are taken from the NAc, area CA1, EC, and PFC and subjected to Western blotting for quantification of deltaFosB levels. Sections are prepared from these same regions and stained for ΔFosB in order to count immunoreactive nuclei with stereological techniques (Vialou et al., 2010). Sections through the ventral striatum are co-stained with an antibody against the D1R, since the expression of ΔFosB in these cells may be particularly important for SSRI actions (Lobo et a/., 2013). Similar to fluoxetine, in specific embodiments in stressed and unstressed animals, alpha5 GABA-NAM affects ΔFosB expression in the NAc and other brain regions, consistent with initial studies (FIG. 5)."}, "[1]": {"test_system": "str. pyramidale of area CA1 and NAc shell", "test": "In vivo field potential recording of oscillatory activity", "set-up": "species or system rat", "method": "A1. A 60 min period of continuous recording of spontaneous field potential activity is made under dim illumination. Rats are then injected with either L-665,708 or vehicle, and placed back in the tube for an additional 60-90 min of recording. Discrete fast Fourier transforms are made on 60s-long recording segments for preparation of spectrograms. Oscillation power (area under the curve) is integrated for different frequency bandwidths for power spectral density plots (Θ=3-7 Hz; α=8-12 Hz; β=13-29 Hz; γ=30-80 Hz) (Buhl et al., 1998; Raver et al., 2013). Just as with ketamine (e.g. Kittleberger et al., 2012; Lazarewicz et al., 2010; Hinman et al., 2013), in specific embodiments increases in power are observed by pairwise comparison of spectra before and after drug injection. Initial studies are consistent with this consideration (FIG. 2).\nElectrophysiology in vivo. Tungsten microelectrodes (tip impedances=0.5M,Ω) are implanted stereotaxically in str. pyramidale of area CA 1, layer II of the EC, layer V of the medial PFC, or the shell of the NAc and secured to the skull with cement. After implantation, rats will be habituated to stay still under light restraint (a metal pole connecting the headstage to a rigid arm) in a narrow tube. On-going electrical activity will be recorded in the absence of anesthesia. Field potentials will be analyzed using Spike2 software."}, "[2]": {"test_system": "chronically stressed rats", "test": "Reversal of chronic stress-induced behavioral changes (SPT and SIT; CRS and CUS) overall", "type": "in vivo, rat", "excerpt": "Chronic restraint stress (CRS). Male Sprague Dawley rats (4-5 weeks-old; Harlan Laboratories) were placed in appropriately sized restraint tubes, highly restricting their movement for periods of four hours in a brightly lit lab, every day for ten days during the light phase of their diurnal cycle (Lim et al., 2012).\nChronic unpredictable stress (CUS). Male Sprague-Dawley rats (4-5 weeks-old; Harlan Laboratories) were randomly divided into control and CUS groups. Rats in the CUS group were individually housed. CUS animals were treated with two mild stressors every day for 5-6 weeks during their light phase (Willner et al., 1987). The stressors were randomly cycled to enhance unpredictability. […]\nSucrose preference test (SPT). […] Sucrose preference was calculated as amount of the sucrose solution consumed as a percentage of the total amount of liquid consumed. […]\nSeveral hedonic behaviors in rodents are sensitive to chronic stress and are restored by chronic, but not acute, administration of SSRIs, providing one means to screen for potential antidepressant compounds. First, it was determined whether L-655,708 would rapidly (<24 hrs) restore normal hedonic behavior following chronic restraint stress (Watanabe et al., 1992; Lim et al., 2012), consistent with the rapid antidepressant-like actions of ketamine (Li et al., 2011). […]"}}, "data": [{"smiles": "CCOC(=O)c1ncn2c1[C@@H]1CCCN1C(=O)c1cc(OC)ccc1-2", "note": "[L-655,708, ethyl (13aS)-7-methoxy-9-oxo-11, 12,13,13 a-terahydro-9H-imidazo[1,5-a]pyrrolo[2,1-c] [1,4]benzodiazepine-1-carboxylate]", "values": [{"measurement": "expression of FosB and ΔFosB", "setting": "ΔFosB; 24 hrs after injection", "value": "No changes were apparent"}, {"measurement": "expression of FosB and ΔFosB in the NAc", "setting": "ΔFosB; unstressed animals, one hour after injection", "value": "increase"}, {"measurement": "persistence of increase in oscillatory activity", "setting": "[1]; CA1 and NAc shell", "value": "persisted for more than one hour"}, {"measurement": "oscillatory activity (theta and beta frequency bands)", "setting": "[1]; str. pyramidale of area CA1 and NAc shell, after injection", "value": "rapid increase"}, {"measurement": "time to reversal of chronic stress-induced depressive-like behavioral changes", "setting": "[2]; CRS and CUS, 0.7 mg/kg i.p., model-independent", "value": "less than 24 hrs"}, {"measurement": "time to reversal of loss of sucrose preference and decrease in social interaction", "setting": "[2]; single injection, l mg/kg intraperitoneally, CUS and CRS", "value": "≤ 24", "unit": "h"}]}]}
